# Entries after “also recorded” stand apart in the source; their conditions may differ.
# Columns and labels:
# [1] = test system: female subjects 40-65 years of age with mild to moderate skin aging; assay: Profilometry of silicone replicas of the crow's feet area in the 16-week clinical study; assay type: in vivo, human; details: replicas at day 0, week 8, week 16, p<0.05
# Experimental: (§1) The effect of the MMP inhibitor on the subject's skin was assessed using the Physician Global Assessment of facial skin appearance and the assessment of the following individual skin appearance parameters on a scale from 0 to 9: fine wrinkling, mottled hyperpigmentation, age spots, tactile roughness, coarse wrinkling, telangiectasia, pore size, sallow tone, and sag. The cosmetic appearance of telangiectasia may be perceived as increased facial redness. Other criteria were also used including profilometry of crow's feet region using silicone replicas.
# Silicone replicas of the crow's feet area (“profilometry”) were made at day 0, week 8, and week 16.
# For the silicone replicas, the data used in the statistical analyses was the change from baseline. Within-treatment analysis of the skin replica parameters changes from baseline were evaluated using Student's t-test for paired data. Between-treatment analyses were conducted utilizing analysis of covariance with the baseline value as the covariate.
# [2] = test system: female subjects 40-65 years of age with mild to moderate skin aging; assay: Double-blind, placebo-controlled, randomized 16-week clinical study; dermatologist assessment of individual facial skin appearance parameters (scale 0-9); assay type: in vivo, human; details: 16 weeks
# Experimental: Photoaging of the skin typically manifests itself as worsening appearance of the skin, including an increased appearance of mottled hyperpigmentation, wrinkles, coarseness of skin, redness, and pores. In this study, the MMP inhibitor,
# was evaluated in female subjects 40-65 years of age with mild to moderate skin aging to determine its benefit on the appearance of aging.
# The study was designed as a double-blind, placebo-controlled, randomized 16-week clinical study to evaluate the benefit of the MMP inhibitor,
# in reducing the appearance of aging. Subjects enrolled in the study were between 40-65 years of age with mild to moderate skin age scores. A randomization table was used to determine which subjects would receive the study cream and which would receive the placebo cream. Subjects were instructed to apply the assigned cream to their face twice a day (once in the morning and once in the evening) after their face was washed and dried. A pea-sized drop of the test article was applied to each quadrant of the face to form a thin layer over the entire face. Follow-up visits were scheduled at 2, 4, 8, 12, and 16 weeks after the cream application was started.
# Subjects were instructed to apply the test or placebo cream to the face twice daily (once in the morning and once in the evening) over the entire 16 week study period. […]
# as §1, with “The cosmetic appearance of telangiectasia may be perceived as increased facial redness. Other criteria were also used including profilometry of crow's feet region using silicone replicas.” left out
# A Physician Global Assessment of facial skin appearance using the Griffiths scale (0-8) was performed at all study visits. […] An assessment of individual skin parameters including fine wrinkling, mottled hyperpigmentation, age spots, tactile roughness, coarse wrinkling, redness, pore size, sollowness, and sag was scored on a scale from 0-9 at all study visits based on the following table: […]
compound,measurement,setting,value
O=C(NCc1ccc(-c2ccccc2)cc1)c1occc(=O)c1O [MMP inhibitor],"coarse wrinkle depth and roughness by profilometry of silicone replica, treatment vs placebo group",[1],significant improvement; also recorded: consistent with the improvement of coarse wrinkle scores
same,"appearance of telangiectasia (redness), change from baseline relative to the placebo formulation","[2]; cream of Example 27 (0.20% MMP inhibitor) applied to the face twice daily, p<0.05 vs placebo",reduce the appearance of telangiectasia
same,"appearance of pore size, active vs placebo group","[2]; cream of Example 27 applied to the face twice daily, Proc GLM time x treatment interaction p-value 0.02",improved appearance; also recorded: trending toward improvement
same,"appearance of coarse wrinkles, active vs placebo group","[2]; cream of Example 27 applied to the face twice daily, Proc GLM time x treatment interaction p-value 0.06",improved appearance of coarse wrinkles; also recorded: trending toward improvement
